Patent US10940201B2, “Nucleic acid derivative having immunostimulatory activity” (Shionogi & Co., Ltd., priority 2015, dated 2021)

Key:
[1] = test system: B16F10 cells; assay: Anti-tumor effect of TRP2 peptide vaccine using an adjuvant; format: in vivo, mouse
Experimental: After immunization by TRP2 peptide vaccine, B16F10 cells (ATTC) which is mouse melanoma expressing TRP2 protein was subcutaneously transplanted to evaluate anti-tumor effect. […] The major and minor axes of the engrafted tumor were measured every 2 to 3 days, and the tumor volume was calculated by the formula: (major axis×minor axis^2)/2 Calculation method for indicators of anti-tumor effect For the adjuvant comprising ODN1826 100·(average tumor volume of adjuvant group)/(average tumor volume of ODN1826 group) For the adjuvant comprising ODN2006 100·(average tumor volume of adjuvant group)/(average tumor volume of ODN2006 group)

[2] = Subcutaneous irritation test in a single dose; format: in vivo, rats; conditions: for Gross: Crust / Gross: White matter accumulation / Histopathological, Subcutaneous: Cyst-like structure / Histopathological, Subcutaneous tissue: Cyst-like structure / Gross: Dark red spots / Gross: Edema / Gross: Epidermis: Crust: number of the observed animals; for Histopathological, Dermis: Inflammatory cell infiltration / Histopathological, Subcutaneous: Granulomatous inflammation / Histopathological, Subcutaneous: Inflammatory cell infiltration / Histopathological, Subcutaneous: Edema / Histopathological, Muscle layer: Edema / Histopathological, Muscle layer: Inflammatory cell infiltration / Histopathological, Muscle layer: Necrosis / Histopathological, Subcutaneous tissue: Bleeding / Histopathological, Subcutaneous tissue: Edema / Histopathological, Subcutaneous tissue: Inflammatory cell infiltration / Histopathological, Subcutaneous tissue: Necrosis / Histopathological, Subcutaneous: Necrosis: total score of grades
Experimental: Subcutaneous irritation of a compound of the present invention was evaluated by gross examination and histopathological examination about the skin at necropsy one day, one and four week(s) after subcutaneous administration in a single dose.
The compound of the present invention was subcutaneously administered to the center of back between the shoulder blades of rats. At necropsy one day, one or four week(s) after administration (isoflurane anesthesia, euthanasia by bleeding), skin at the administration site was collected, grossly observed and fixed in 10% neutral buffered formalin solution. The fixed skin was cut out, embedded and put in a thin slice by the usual methods, and Hematoxylin-eosin (HE) stained sections were made. The pathological observers were observed the HE stained sections by an optical microscope, and recorded the histopathological findings. The changes in pathological findings were evaluated in four grades of Minimal; ±, Mild; +, Moderate; 2+ and Marked; 3+. When any grade was not appropriate for the finding, it was recorded as Positive.
SEQ-2, SEQ-49 or an adjuvant of the present invention was dissolved in phosphate buffered saline and administered at 4.71, 15.7 or 47.1 nmol/1 mL/site, respectively.

[3] = four weeks after administration, 4.71 nmol/site
[4] = four weeks after administration, 15.7 nmol/site
[5] = four weeks after administration, 47.1 nmol/site
[6] = one day after administration, 4.71 nmol/site
[7] = one day after administration, 15.7 nmol/site
[8] = one day after administration, 47.1 nmol/site
[9] = one week after administration, 4.71 nmol/site
[10] = one week after administration, 15.7 nmol/site
[11] = one week after administration, 47.1 nmol/site

In the case of Amph1826 [SEQ-2], the “tumor inhibition rate compared to ODN1826” value ([1]; Day 12 after transplantation, Result 4-B, FIG. 3) is reported as “about 3.5%”, the “tumor inhibition rate compared to ODN1826” value ([1]; Day 12 after transplantation, Result 6-B, FIG. 4) is reported as 64.3% and the “tumor inhibition rate compared to ODN1826” value ([1]; Day 14 after transplantation, Result 7-B, FIG. 5) is reported as “about 72.6%”. For the same substance, the “Tumor inhibition rate (Day 14 after transplantation)” value ([1]; Table 37, 1.57 nmol/head, compared to ODN1826 (SEQ-1)) was 72.64%, the “Number of deaths/imminent dissections” value [2, 3] was 0/0 and the “Gross: Crust” value [2, 3] was 0. For the same substance, the “Gross: White matter accumulation” value [2, 3] was 0, the “Histopathological, Subcutaneous: Cyst-like structure” value [2, 3] was 0 and the “Histopathological, Dermis: Inflammatory cell infiltration” value (shortened to “Histopathological, Dermis”) [2, 3] was 0. For the same substance, the “Histopathological, Subcutaneous: Granulomatous inflammation” value [2, 3] was 4, the “Histopathological, Subcutaneous: Inflammatory cell infiltration” value [2, 3] was 0 and the “Number of deaths/imminent dissections” value [2, 4] was 0/0. For the same substance, the “Gross: Crust” value [2, 4] was 0, the “Gross: White matter accumulation” value [2, 4] was 0 and the “Histopathological, Subcutaneous: Cyst-like structure” value [2, 4] was 0. The “Histopathological, Dermis” value [2, 4] was 4, the “Histopathological, Subcutaneous: Edema” value [2, 4] was 0 and the “Histopathological, Subcutaneous: Granulomatous inflammation” value [2, 4] was 5. For the same substance, the “Histopathological, Subcutaneous: Inflammatory cell infiltration” value [2, 4] was 0, the “Number of deaths/imminent dissections” value [2, 5] was 0/0 and the “Gross: Crust” value [2, 5] was 0. For the same substance, the “Gross: White matter accumulation” value [2, 5] was 0, the “Histopathological, Subcutaneous: Cyst-like structure” value [2, 5] was 0 and the “Histopathological, Dermis” value [2, 5] was 7. The “Histopathological, Subcutaneous: Edema” value [2, 5] was 0, the “Histopathological, Subcutaneous: Granulomatous inflammation” value [2, 5] was 7 and the “Histopathological, Subcutaneous: Inflammatory cell infiltration” value [2, 5] was 0. For the same substance, the “Number of deaths/imminent dissections” value [2, 6] was 0/0, the “Histopathological, Subcutaneous tissue: Cyst-like structure” value [2, 6] was 1 and the “Histopathological, Dermis” value [2, 6] was 5. The “Histopathological, Muscle layer: Edema” value [2, 6] was 1, the “Histopathological, Muscle layer: Inflammatory cell infiltration” value [2, 6] was 4 and the “Histopathological, Muscle layer: Necrosis” value [2, 6] was 0. The “Histopathological, Subcutaneous tissue: Bleeding” value (“Histopathological … Bleeding” for short) [2, 6] was 0, the “Histopathological, Subcutaneous tissue: Edema” value [2, 6] was 3 and the “Histopathological, Subcutaneous tissue: Inflammatory cell infiltration” value [2, 6] was 7. The “Histopathological, Subcutaneous tissue: Necrosis” value [2, 6] was 1, the “Number of deaths/imminent dissections” value [2, 7] was 0/0 and the “Histopathological, Subcutaneous tissue: Cyst-like structure” value [2, 7] was 2. For the same substance, the “Histopathological, Dermis” value [2, 7] was 9, the “Histopathological, Muscle layer: Edema” value [2, 7] was 3 and the “Histopathological, Muscle layer: Inflammatory cell infiltration” value [2, 7] was 7. The “Histopathological, Muscle layer: Necrosis” value [2, 7] was 0, the “Histopathological … Bleeding” value [2, 7] was 3 and the “Histopathological, Subcutaneous tissue: Edema” value [2, 7] was 5. For the same substance, the “Histopathological, Subcutaneous tissue: Inflammatory cell infiltration” value [2, 7] was 6, the “Histopathological, Subcutaneous tissue: Necrosis” value [2, 7] was 1 and the “Number of deaths/imminent dissections” value [2, 8] was 0/0. For the same substance, the “Histopathological, Subcutaneous tissue: Cyst-like structure” value [2, 8] was 1, the “Histopathological, Dermis” value [2, 8] was 6 and the “Histopathological, Muscle layer: Edema” value [2, 8] was 4. For the same substance, the “Histopathological, Muscle layer: Inflammatory cell infiltration” value [2, 8] was 6, the “Histopathological, Muscle layer: Necrosis” value [2, 8] was 0 and the “Histopathological … Bleeding” value [2, 8] was 3. For the same substance, the “Histopathological, Subcutaneous tissue: Edema” value [2, 8] was 6, the “Histopathological, Subcutaneous tissue: Inflammatory cell infiltration” value [2, 8] was 6 and the “Histopathological, Subcutaneous tissue: Necrosis” value [2, 8] was 1. The “Number of deaths/imminent dissections” value [2, 9] was 0/0, the “Gross: Dark red spots” value [2, 9] was 0 and the “Gross: Edema” value [2, 9] was 0. The “Gross: Epidermis: Crust” value [2, 9] was 0, the “Gross: White matter accumulation” value [2, 9] was 0 and the “Histopathological, Subcutaneous: Cyst-like structure” value [2, 9] was 1. The “Histopathological, Dermis” value [2, 9] was 4, the “Histopathological, Muscle layer: Inflammatory cell infiltration” value [2, 9] was 0 and the “Histopathological, Subcutaneous: Edema” value [2, 9] was 3. For the same substance, the “Histopathological, Subcutaneous: Granulomatous inflammation” value [2, 9] was 0, the “Histopathological, Subcutaneous: Necrosis” value [2, 9] was 0 and the “Number of deaths/imminent dissections” value [2, 10] was 0/0. The “Gross: Dark red spots” value [2, 10] was 0, the “Gross: Edema” value [2, 10] was 1 and the “Gross: Epidermis: Crust” value [2, 10] was 0. The “Gross: White matter accumulation” value [2, 10] was 0, the “Histopathological, Subcutaneous: Cyst-like structure” value [2, 10] was 1 and the “Histopathological, Dermis” value [2, 10] was 6. For the same substance, the “Histopathological, Muscle layer: Inflammatory cell infiltration” value [2, 10] was 4, the “Histopathological, Subcutaneous: Edema” value [2, 10] was 4 and the “Histopathological, Subcutaneous: Granulomatous inflammation” value [2, 10] was 0. The “Histopathological, Subcutaneous: Inflammatory cell infiltration” value [2, 10] was 8, the “Histopathological, Subcutaneous: Necrosis” value [2, 10] was 0 and the “Number of deaths/imminent dissections” value [2, 11] was 0/0. For the same substance, the “Gross: Dark red spots” value [2, 11] was 0, the “Gross: Edema” value [2, 11] was 1 and the “Gross: Epidermis: Crust” value [2, 11] was 0. The “Gross: White matter accumulation” value [2, 11] was 0, the “Histopathological, Subcutaneous: Cyst-like structure” value [2, 11] was 3 and the “Histopathological, Dermis” value [2, 11] was 9. The “Histopathological, Muscle layer: Inflammatory cell infiltration” value [2, 11] was 6, the “Histopathological, Subcutaneous: Edema” value [2, 11] was 3 and the “Histopathological, Subcutaneous: Granulomatous inflammation” value [2, 11] was 0. The “Histopathological, Subcutaneous: Inflammatory cell infiltration” value [2, 11] was 8, the “Histopathological, Subcutaneous: Necrosis” value [2, 11] was 0 and the “subcutaneous irritation findings four weeks after administration” value ([2]; rats, single subcutaneous dose, four weeks) was “skin inflammation was not recovered, and granulomatous inflammation by continuous activation of monocyte/macrophage system was observed”. For the same substance, the “subcutaneous irritation findings one day after administration” value ([2]; rats, single subcutaneous dose, one day) was “inflammation cellular infiltration, edema and crust were observed” and the “subcutaneous irritation findings one week after administration” value ([2]; rats, single subcutaneous dose, one week) was “inflammation cellular infiltration, edema and crust were observed”.
